We go through two compounds from patent publication US20120015882A1, “COMPOSITION FOR REGULATING AUTONOMIC NERVOUS ACTIVITY AND METHOD FOR REGULATING AUTONOMIC NERVE” (priority 2009, published 2012).

For assay [1], the system named is parasympathetic (vagus) nerve controlling the stomach. Description: Action potential of the parasympathetic (vagus) nerve controlling the stomach (GVNA) after oral administration. The settings on record: rats, 5 to 60 minutes after administration, ANOVA. It is filed as in vivo, rat. The procedure:
Water or 0.045 mg/kg weight or 0.12 mg/kg weight of Tyr-Pro was administered to rats (n=3), and the action potential of the parasympathetic (vagus) nerve controlling the stomach was measured over time. […] Values for 5 to 60 minutes after the administration were treated as a group, and a significance test with respect to the water-administered control group was conducted by the analysis of variance (ANOVA).
Male Wister rats (approximately […]) (n=3) with a body weight of approximately 300 g were used, and they took food and water ad lib. To examine the activity of the autonomic nerve, after a 3-hour fast, a polyethylene tube for oral administration was inserted into the oral cavity of each rat under urethane anesthesia in the middle of a light period. Thereafter, a sympathetic nerve controlling the adrenal gland, a parasympathetic (vagus) nerve controlling the stomach, or sympathetic nerve in a cutaneous artery of the tail was hooked to a silver electrode, and the electrical activity of the nerve was determined. […] In a period where the activities of these nerves were stabilized, 1 ml of each sample was orally administered through a polyethylene tube, and the changes in activities of these nerves were measured. […]

Assay [2] concerns sympathetic nerve controlling the adrenal gland. Description: Action potential of the sympathetic nerve controlling the adrenal gland (ASNA) after oral administration. It counts as in vivo, rat. The settings on record: rats, 0.012 mg/kg weight, 5 to 60 minutes after administration, ANOVA. The procedure:
[…] […] Values for 5 to 60 minutes after the administration were treated as a group, and a significance test with respect to the water-administered control group was conducted by the analysis of variance (ANOVA).
Male Wister rats (approximately […]) (n=3) with a body weight of approximately 300 g were used, and they took food and water ad lib. To examine the activity of the autonomic nerve, after a 3-hour fast, a polyethylene tube for oral administration was inserted into the oral cavity of each rat under urethane anesthesia in the middle of a light period. Thereafter, a sympathetic nerve controlling the adrenal gland, a parasympathetic (vagus) nerve controlling the stomach, or sympathetic nerve in a cutaneous artery of the tail was hooked to a silver electrode, and the electrical activity of the nerve was determined. From the start of the operation to the completion of the determination, the tube was kept inserted in the trachea to secure the airway, and the body temperature (rectal temperature of the rat) was kept at 35.0±0.5° C. by using an incubator. In a period where the activities of these nerves were stabilized, 1 ml of each sample was orally administered through a polyethylene tube, and the changes in activities of these nerves were measured. […]

For assay [3], the system named is sympathetic nerve in a cutaneous artery of the tail. Description: Action potential of the sympathetic nerve in the cutaneous artery of the tail (CASNA) after oral administration. It counts as in vivo, rat. The settings on record: rats, 0.12 mg/kg weight, 5 to 60 minutes after administration.
Protocol: Water, 0.12 mg/kg weight of Tyr-Pro, or 4.2 mg/kg weight of a casein hydrolysate was administered to rats (n=3), and the action potential of the sympathetic nerve in the cutaneous artery of the tail was measured over time. […] Values for 5 to 60 minutes after the administration were treated as a group, and a significance test with respect to the water-administered control group was conducted by the analysis of variance (ANOVA).
Male Wister rats (approximately 0-week old) (n=3) with a body weight of approximately 300 g were used, and they took food and water ad lib. To examine the activity of the autonomic nerve, after a 3-hour fast, a polyethylene tube for oral administration was inserted into the oral cavity of each rat under urethane anesthesia in the middle of a light period. Thereafter, a sympathetic nerve controlling the adrenal gland, a parasympathetic (vagus) nerve controlling the stomach, or sympathetic nerve in a cutaneous artery of the tail was hooked to a silver electrode, and the electrical activity of the nerve was determined. […] In a period where the activities of these nerves were stabilized, 1 ml of each sample was orally administered through a polyethylene tube, and the changes in activities of these nerves were measured. […]
In assay [4] the test system is gastric emptying function. Nature of the assay: Gastric emptying function test (phenol red dye discharge). It is filed as in vivo, rat. To be noted: SD rats, oral 0.1 mg/kg weight, dye 30 minutes later, stomach extirpated 20 minutes after dye; mean±standard error; control 78.8±2.41%. The procedure: Water or 0.1 mg/kg weight of Tyr-Pro was administered to rats (n=10), and 30 minutes later a dye (phenol red) was administered. After additional 20 minutes, each stomach was extirpated, and the dye remaining in the stomach was determined. A significance test with respect to the water-administered control group was conducted by an unpaired Student's t test.
Male Sprague-Dawley (SD) rats (6-week old) (n=10) were used, and they took food and water ad lib. After preliminary feeding for one week or longer, the rats were subjected to the experiment. Prior to the test, all the rats were fasted in a fasting cage for 24 hours. During the period, the rats took water ad lib. In the test, a solvent (distilled water for injection) and 0.1 mg/kg weight of Tyr-Pro were orally administered to the rats, and, 30 minutes later, a 0.05% dye (phenol red) solution (containing 1.5% of carboxylmethyl cellulose) was orally administered at a volume of 1.5 ml/rat. Each stomach was extirpated under ether anesthesia 20 minutes after the administration of the dye without delay. […] The supernatant was centrifuged, and then measured for absorbance at 560 nm. The gastric emptying function (GE: gastric emptying) was calculated in accordance with the following formula.
GE(%)=(1−absorbance of solution recovered from stomachs of test-substance-administered group/absorbance at gastric emptying of 0%)×100 […]

In assay [5] the test system is scopolamine-induced amnesia. Description: Scopolamine-induced amnesia, Y-shaped maze test (spontaneous alternation behavior). It counts as in vivo. The settings on record: ddY mice, oral 1.5 mg/kg weight to 15 mg/kg weight, 60 minutes before Y-shaped maze; scopolamine 1 mg/kg s.c.
Protocol: A significance test on the groups was conducted by a Dunnett's multiple comparison test.
Male ddY mice (approximately 7-week old) (n=15) were used, and they took food and water ad lib.
The test substances were administered to the mice once orally 60 minutes before the execution of a Y-shaped maze test for evaluation of spontaneous alternation behavior. Further, 30 minutes before the execution of the Y-shaped maze test, 1 mg/kg weight of scopolamine was subcutaneously administered on the backs, of the mice in order to induce dysmnesia and/or cognitive impairment in the mice. […] The sequence of the arms into which each of the mice entered was recorded. The number of entries into the arms of each mouse during the measurement time was counted to be the total number of entries. […] The percentage of change in spontaneous alternation behavior was calculated by dividing the number of spontaneous alternation behavior by a number obtained by subtracting 2 from the total number of entries and multiplying a resultant number by 100. […] The measured values were expressed in the form of mean±standard error for each group. […]
The subject of assay [6] is time of stay on the open arms. Nature of the assay: Elevated plus-maze test (anti-anxiety effect). To be noted: ddY mice, oral 0.1 mg/kg weight to 100 mg/kg weight, test 30 minutes after administration. It is filed as in vivo. The procedure: Water, 0.1 mg/kg weight to 100 mg/kg weight of Tyr-Pro, or 10 mg/kg to 1000 mg/kg weight of a casein hydrolysate was administered to mice (n=12), and the time for which the mice stayed on open arms was measured (Example 4). […] The data were expressed in the form of mean±standard error. A significance test with respect to the water-administered control group was conducted by an unpaired Student's t test, and *, **, and *** indicate that P<0.05, P<0.01, and P<0.001, respectively.
Male ddY mice (approximately 6-week old) (n=12) were used. After preliminary feeding, Tyr-Pro (0.1 mg/kg weight, 1.0 mg/kg weight, 10 mg/kg weight, 30 mg/kg weight, or 100 mg/kg weight) or a casein hydrolysate (10 mg/kg weight, 100 mg/kg weight, or 1000 mg/kg weight) was administered once orally. The anti-anxiety effect was examined by an elevated plus-maze test 30 minutes after the administration. The casein hydrolysate was the same as that in Example 1. […] The behaviors thereof were observed, and the accumulative time of stay on the open arms was measured. From the measured value, the percentage of the accumulative time of stay on the open arms in a 5-minute test was found, and used as an index of the anti-anxiety effect. […] The measured values were expressed in the form of mean±standard error for each group and a comparison with the control group was conducted by using an unpaired Student's t test.

A further assay deals with pain. The settings on record: rat, intraperitoneal; cited from earlier work.
A further assay relates to opioid receptors. The settings on record: cited from earlier work.
The next assay deals with blood pressure. The settings on record: orally administered; cited from earlier work.
A further assay concerns autonomic nerve. To be noted: intravenous administration; cited from earlier work.

As for Tyr-Pro, the “parasympathetic nervous activity in the stomach in comparison with the water-administered group” value in [1] (0.045 mg/kg weight) and in assay [1] (0.12 mg/kg weight) was “significantly increased” each time. Besides, in assay [2], the “sympathetic nervous activity in the adrenal gland in comparison with the water-administered group” value is recorded as “significantly decreased”. Also, the “sympathetic nervous activity in the cutaneous artery in comparison with the water-administered group” value in assay [3] was “a tendency was observed that the sympathetic nervous activity in the cutaneous artery was lowered”. For the same compound, the “dye discharge percentage (gastric emptying, GE)” value in [4] is recorded as 85.4±2.01%. In addition, the “effect of preventing amnesia” value in [5] is “an effect of preventing amnesia”. The anti-anxiety effect entry in [6] is on record as “exhibited an anti-anxiety effect”. For the same compound, in the assay with pain, the analgesic effect result was “exhibit an analgesic effect”. Moreover, in the assay on opioid receptors, the “binding capability to opioid receptors” value is on record as “lacks binding capability to opioid receptors”. Also, the “effect of lowering the blood pressure” value in the assay with blood pressure is on record as “effect of lowering the blood pressure”.
In the case of `NCCC(=O)N[C@@H](Cc1cnc[nH]1)C(=O)O` [carnosine], the “effect of controlling the autonomic nerve” value in the assay on autonomic nerve is recorded as “an effect of controlling the autonomic nerve”.
